Legend:
[1] = Human liver microsomes (HLM) assay; format: in vitro ADME; conditions: hepatic extraction ratio; 0.5 μM compound, 0.5 mg/mL microsomes, NADPH, 37° C.
In short: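 Compound at 0.5 μM incubated at 37° C. with human liver microsomes (0.5 mg/mL) and NADPH (1 mM) in phosphate buffer pH 7.4, 1% organic solvent; sampled 0-30 minutes. Clapp (mL/min/kg) and Eh (%) derived from depletion rate constant.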

[2] = biological target: T1, glucocorticoid receptor (GR), recombinant full-length receptor protein (Homo sapiens, UniProt P04150); assay: Glucocorticoid receptor binding assay (fluorescence polarization kit); conditions: 4 nM receptor, 2.5 nM Fluormone GS1 tracer, 2h room temperature, read-out: GR binding ABS IC50
T1 construct: 4 nM recombinant, full-length receptor protein was incubated with increasing concentrations of GR ligand; purchased Life Technologies A-15897
T1 sequence (P04150 1-777): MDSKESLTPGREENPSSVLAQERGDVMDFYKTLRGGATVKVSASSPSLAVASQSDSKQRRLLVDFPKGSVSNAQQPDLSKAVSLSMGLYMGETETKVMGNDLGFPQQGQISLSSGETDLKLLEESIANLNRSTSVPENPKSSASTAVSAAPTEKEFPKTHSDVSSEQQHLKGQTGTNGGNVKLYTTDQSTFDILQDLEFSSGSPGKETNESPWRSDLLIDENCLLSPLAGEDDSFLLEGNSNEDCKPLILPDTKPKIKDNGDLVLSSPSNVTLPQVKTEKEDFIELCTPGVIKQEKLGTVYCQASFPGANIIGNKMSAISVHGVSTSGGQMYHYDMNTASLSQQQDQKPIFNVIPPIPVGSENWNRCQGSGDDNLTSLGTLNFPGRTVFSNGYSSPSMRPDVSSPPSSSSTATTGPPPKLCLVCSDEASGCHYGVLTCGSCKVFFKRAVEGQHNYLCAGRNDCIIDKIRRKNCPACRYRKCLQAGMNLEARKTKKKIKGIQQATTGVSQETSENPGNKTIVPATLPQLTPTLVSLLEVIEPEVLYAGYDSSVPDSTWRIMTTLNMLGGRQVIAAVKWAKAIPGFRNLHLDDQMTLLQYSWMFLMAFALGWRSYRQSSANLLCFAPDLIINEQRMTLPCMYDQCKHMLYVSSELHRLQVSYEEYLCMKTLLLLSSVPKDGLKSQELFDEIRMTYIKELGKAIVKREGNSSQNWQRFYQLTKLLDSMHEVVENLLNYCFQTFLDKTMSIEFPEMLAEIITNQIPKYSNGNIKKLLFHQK
Protocol: Test compounds were diluted in DMSO over seven orders of magnitude, further diluted in assay buffer and distributed into 384-well plates. The sensitivity limit of this assay was 2-4 nM.
Data were processed by sigmoidal curve fitting.
Absolute (Abs) IC50 and Emax were determined from the curve fits.

[3] = tested on: TNF alpha release from human PBMCs; assay: Inhibition of TNF alpha release from human PBMCs; format: cell-based; conditions: PBMC, LPS 1 μg/ml, 18 hours, AlphaLISA
In short: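 Fresh or thawed PBMCs in serum-free medium with 0.5% HSA, stimulated with 1 μg/ml LPS plus titrated compound for 18 h at 37° C. TNF-a in supernatant by AlphaLISA; window set with a reference PDE4 inhibitor at 100×IC50. EC50 and Emax from sigmoidal fits.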

Compound	HLM assay Eh (%) [1]	IC50 [2]	EC50 [3]
C[C@H](NC(=O)C1(O)CC1)[C@H](Oc1ccc(C(=O)N[C@H]2CCCN(C(=O)[C@H]3COC(=O)C3)C2)nc1)c1ccc(C2CC2)cc1 [Compound 18, 5-[(1R,2S)-1-(4-cyclopropylphenyl)-2-[(1-hydroxycyclopropanecarbonyl)amino]propoxy]-N-[(3S)-1-[(3R)-5-oxotetrahydrofuran-3-carbonyl]-3-piperidyl]pyridine-2-carboxamide]	* (extraction ratio (Eh)>90%)	100 to 300 nM	< 100 nM
C[C@H](NC(=O)c1nccn1C)[C@H](Oc1ccc(C(=O)O[C@H]2CCCN(C(=O)[C@H]3COC(=O)C3)C2)cc1)c1ccc(C2CC2)cc1 [Compound 40, [(3S)-1-[(3R)-5-oxotetrahydrofuran-3-carbonyl]-3-piperidyl] 4-[(1R,2S)-1-(4-cyclopropylphenyl)-2-[(1-methylimidazole-2-carbonyl)amino]propoxy]benzoate]	* (extraction ratio (Eh)>90%)	< 100 nM	< 100 nM
C[C@H](NC(=O)c1cn(C)cn1)[C@H](Oc1ccc(C(=O)O[C@H]2CCCN(C(=O)[C@H]3COC(=O)C3)C2)cc1)c1ccc(C2CC2)cc1 [Compound 43, [(3S)-1-[(3R)-5-oxotetrahydrofuran-3-carbonyl]-3-piperidyl] 4-[(1R,2S)-1-(4-cyclopropylphenyl)-2-[(1-methylimidazole-4-carbonyl)amino]propoxy]benzoate]	* (extraction ratio (Eh)>90%)	< 100 nM	< 100 nM
Cc1nocc1C(=O)N[C@@H](C)[C@H](Oc1ccc(C(=O)O[C@H]2CCCN(C(=O)[C@H]3COC(=O)C3)C2)cc1)c1ccc(C2CC2)cc1 [Compound 45, [(3S)-1-[(3R)-5-oxotetrahydrofuran-3-carbonyl]-3-piperidyl] 4-[(1R,2S)-1-(4-cyclopropylphenyl)-2-[(3-methylisoxazole-4-carbonyl)amino]propoxy]benzoate]	* (extraction ratio (Eh)>90%)	< 100 nM	< 100 nM
C[C@H](NC(=O)[C@H]1CCCO1)[C@H](Oc1ccc(C(=O)O[C@H]2CCCN(C(=O)[C@H]3COC(=O)C3)C2)cc1)c1ccc(C2CC2)cc1 [Compound 37, [(3S)-1-[(3R)-5-oxotetrahydrofuran-3-carbonyl]-3-piperidyl] 4-[(1R,2S)-1-(4-cyclopropylphenyl)-2-[[(2R)-tetrahydrofuran-2-carbonyl]amino]propoxy]benzoate]	* (extraction ratio (Eh)>90%)	< 100 nM	< 100 nM
C[C@H](NC(=O)C(C)(F)F)[C@H](Oc1ccc(C(=O)N[C@H]2CCCN(C(=O)[C@H]3COC(=O)C3)C2)nc1)c1ccc(C2CC2)cc1 [Compound 3, 5-[(1R,2S)-1-(4-cyclopropylphenyl)-2-(2,2-difluoropropanoylamino)propoxy]-N-[(3S)-1-[(3R)-5-oxotetrahydrofuran-3-carbonyl]-3-piperidyl]pyridine-2-carboxamide]	* (extraction ratio (Eh)>90%)	< 100 nM	< 100 nM
CC[C@H](O)C(=O)N[C@@H](C)[C@H](Oc1ccc(C(=O)N[C@H]2CCCN(C(=O)[C@H]3COC(=O)C3)C2)nc1)c1ccc(C2CC2)cc1 [Compound 10, 5-[(1R,2S)-1-(4-cyclopropylphenyl)-2-[[(2S)-2-hydroxybutanoyl]amino]propoxy]-N-[(3S)-1-[(3R)-5-oxotetrahydrofuran-3-carbonyl]-3-piperidyl]pyridine-2-carboxamide]	* (extraction ratio (Eh)>90%)	100 to 300 nM	< 100 nM
C[C@H](NC(=O)c1nccs1)[C@H](Oc1ccc(C(=O)O[C@H]2CCCN(C(=O)[C@H]3COC(=O)C3)C2)cc1)c1ccc(C2CC2)cc1 [Compound 46, [(3S)-1-[(3R)-5-oxotetrahydrofuran-3-carbonyl]-3-piperidyl] 4-[(1R,2S)-1-(4-cyclopropylphenyl)-2-(thiazole-2-carbonylamino)propoxy]benzoate]	** (50%<extraction ratio (Eh)<90%)	< 100 nM	< 100 nM

Continued, in another order:

HLM assay Eh (%) [1]	IC50 [2]	Compound	EC50 [3]
* (extraction ratio (Eh)>90%)	< 100 nM	C[C@H](NC(=O)c1ccon1)[C@H](Oc1ccc(C(=O)N[C@H]2CCCN(C(=O)[C@H]3COC(=O)C3)C2)nc1)c1ccc(C2CC2)cc1 [Compound 23, N-[(1S,2R)-2-(4-cyclopropylphenyl)-1-methyl-2-[[6-[[(3S)-1-[(3R)-5-oxotetrahydrofuran-3-carbonyl]-3-piperidyl]carbamoyl]-3-pyridyl]oxy]ethyl]isoxazole-3-carboxamide]	< 100 nM
* (extraction ratio (Eh)>90%)	< 100 nM	Cc1nonc1C(=O)N[C@@H](C)[C@H](Oc1ccc(C(=O)O[C@H]2CCCN(C(=O)[C@H]3COC(=O)C3)C2)cc1)c1ccc(C2CC2)cc1 [Compound 28, [(3S)-1-[(3R)-5-oxotetrahydrofuran-3-carbonyl]-3-piperidyl] 4-[(1R,2S)-1-(4-cyclopropylphenyl)-2-[(4-methyl-1,2,5-oxadiazole-3-carbonyl)amino]propoxy]benzoate]	< 100 nM
* (extraction ratio (Eh)>90%)	< 100 nM	C[C@H](NC(=O)c1cnco1)[C@H](Oc1ccc(C(=O)O[C@H]2CCCN(C(=O)[C@H]3COC(=O)C3)C2)cc1)c1ccc(C2CC2)cc1 [Compound 50, [(3S)-1-[(3R)-5-oxotetrahydrofuran-3-carbonyl]-3-piperidyl] 4-[(1R,2S)-1-(4-cyclopropylphenyl)-2-(oxazole-5-carbonylamino)propoxy]benzoate]	< 100 nM
* (extraction ratio (Eh)>90%)	< 100 nM	C[C@H](NC(=O)c1ccnn1C)[C@H](Oc1ccc(C(=O)O[C@H]2CCCN(C(=O)[C@H]3COC(=O)C3)C2)cc1)c1ccc(C2CC2)cc1 [Compound 35, [(3S)-1-[(3R)-5-oxotetrahydrofuran-3-carbonyl]-3-piperidyl] 4-[(1R,2S)-1-(4-cyclopropylphenyl)-2-[(2-methylpyrazole-3-carbonyl)amino]propoxy]benzoate]	100 to 300 nM
* (extraction ratio (Eh)>90%)	< 100 nM	Cc1noc(C(=O)N[C@@H](C)[C@H](Oc2ccc(C(=O)O[C@H]3CCCN(C(=O)[C@H]4COC(=O)C4)C3)cc2)c2ccc(C3CC3)cc2)n1 [Compound 56, [(3S)-1-[(3R)-5-oxotetrahydrofuran-3-carbonyl]-3-piperidyl] 4-[(1R,2S)-1-(4-cyclopropylphenyl)-2-[(3-methyl-1,2,4-oxadiazole-5-carbonyl)amino]propoxy]benzoate]	< 100 nM
* (extraction ratio (Eh)>90%)	< 100 nM	C[C@H](NC(=O)c1ncco1)[C@H](Oc1ccc(C(=O)N[C@H]2CCCN(C(=O)[C@H]3COC(=O)C3)C2)nc1)c1ccc(C2CC2)cc1 [Compound 6, N-[(1S,2R)-2-(4-cyclopropylphenyl)-1-methyl-2-[[6-[[(3S)-1-[(3R)-5-oxotetrahydrofuran-3-carbonyl]-3-piperidyl]carbamoyl]-3-pyridyl]oxy]ethyl]oxazole-2-carboxamide]	< 100 nM
* (extraction ratio (Eh)>90%)	< 100 nM	CCc1ccc([C@@H](Oc2ccc(C(=O)N[C@H]3CCCN(C(=O)[C@H]4COC(=O)C4)C3)nc2)[C@H](C)NC(=O)C(F)(F)F)cc1 [Compound 66, 5-[(1R,2S)-1-(4-ethylphenyl)-2-[(2,2,2-trifluoroacetyl)amino]propoxy]-N-[(3S)-1-[(3R)-5-oxotetrahydrofuran-3-carbonyl]-3-piperidyl]pyridine-2-carboxamide]	< 100 nM
* (extraction ratio (Eh)>90%)	< 100 nM	C[C@H](NC(=O)c1ccns1)[C@H](Oc1ccc(C(=O)N[C@H]2CCCN(C(=O)[C@H]3COC(=O)C3)C2)nc1)c1ccc(C2CC2)cc1 [Compound 5, N-[(1S,2R)-2-(4-cyclopropylphenyl)-1-methyl-2-[[6-[[(3S)-1-[(3R)-5-oxotetrahydrofuran-3-carbonyl]-3-piperidyl]carbamoyl]-3-pyridyl]oxy]ethyl]isothiazole-5-carboxamide]	< 100 nM

Source: patent US10494363B2, “Non-steroidal glucocorticoid receptor modulators for local drug delivery” (LEO PHARMA A/S, priority 2015, dated 2019)
